For experiment [1], the system named is flies expressing fragile X premutation rCGG repeats (elav-GAL4/+; UAS-CGG90-EGFP/+). The experiment can be described thus: Chemical screen / viability assay: rescue of lethality caused by neuronal expression of fragile X premutation rCGG90 repeats. The experiment is classed as in vivo, Drosophila. The settings on record: for recovery of dFmr1 CGG90 mutant flies: 40 microM of compound in the food, 0% on food alone. From the text:
In particular, embodiments of the present disclosure include methods of screening compounds using a drosophila (fruit fly) based compound screen to identify drug candidates for the treatment of the fragile X-associated tremor/ataxia syndrome or other neurodegenerative disorders. […] A fly line of UAS-CGG90-EGFP transgene balanced with Cyo balancer carrying hs-hid transgene was generated. Upon heat shock, the expression of hid was activated, which led to cell death and lethality in the CGG90 dFmr1 premutation fly embryos.
The mutant embryos were placed into an appropriate container (e.g., a 96-well container) containing a food with or without a compound from a library of drugs candidates. 5 μM and 40 μM of individual compounds from a library of 2,000 FDA approved drugs and natural products (The Spectrum Collection™) were screened. Vials were then kept at 25° C. for 10 to 15 days to score for viability. The efficacy of the drug candidate was determined by scoring the number of pupae formation or the emergence of adult flies after a certain time frame. Embodiments of the present disclosure provide a screen for compounds that directly and indirectly regulate dFmr1 rCGG repeat mediated toxicity and rescue mutant flies from heat shock induced lethality. Additional details regarding the active compositions and disorders are described in the Examples below.
A Drosophila disease model of FXTAS and provided experimental evidence that fragile X premutation rCGG repeats alone are sufficient to cause neurodegeneration in a repeat-dosage manner. See Jin et al., Neuron, 2003, 39:739-747. […] Lethality occurs primarily during embryonic development before larval formation. Taking advantage of this lethality, a high-throughput strategy was designed to screen chemical libraries for small molecules relevant to FXTAS. the UAS-CGG90-EGFP transgene was balanced with a chromosome carrying a curly wing (Cyo) marker recombined with a heat shock-inducible apoptotic hid (hs-hid) transgene (w1118, UAS-CGG90-EGFP/TM2 Cyo:hs-hid). Next, the viability of adult progeny was tested using the Drosophila GAL4/UAS system. crosses of UAS-CGG90-EGFP/TM2 Cyo:hs-hid were performed with homozygous pan-neuronal elav-Gal4 driver. There was an absence of heterozygous non-Cyo adult progeny (elav-GAL4/+; UAS-CGG90-EGFP/+), which confirmed that rCGG90 repeat expression in neurons leads to lethality. The only living progenies would carry elav-GAL4/+; +/TM2 Cyo:hs-hid. Furthermore, upon heat shock, the progenies carrying elav-GAL4/+; +/TM2 Cyo:hs-hid also died, because the expression of hid leads to cell death and lethality at embryonic stages that are otherwise viable.
Since the rescue of the lethality was an easily scored phenotype, one is able to use this assay to conduct a chemical screen to identify the small molecules that can improve/restore the viability of the flies expressing fragile X premutation rCGG repeats. As depicted in schematic representation (FIG. 1A), crosses between elav-GAL4 and UAS-CGG90-EGFP/TM2 Cyo:hs-hid were raised as well as control flies into food supplemented with 40 μm of individual unique compounds from a library of 2000 US Food and Drug Administration (FDA)-approved drugs and natural products (The Spectrum Collection, MicroSource Discovery Systems, Inc.). […]

In the next experiment the test system is dFmr1 CGG90 mutant flies. Kind of experiment: Locomotion assay (Drosophila Activity Monitor) in flies expressing rCGG90 repeats (UAS-CGG90-EGFP/nervana-GAL4). In kind it is in vivo. The following applies: for percentage of normal locomotion activity in dFmr1 CGG90 mutant flies: compound-treated flies, 50% without treatment; for effect on locomotion deficits caused by fragile X premutation rCGG repeats (in words): flies fed food containing the compound, mean locomotor activity over 7 days. On the procedure:
FIG. 2A illustrates the identification of small molecules that can ameliorate the locomotion deficits caused by fragile X premutation rCGG repeats. Nervana-GAL4 driver and UAS-CGG90-EGFP/Cyo were crossed to produce progeny embryos on food supplemented with or without selected compounds as indicated. Adult progeny of genotype UAS-CGG90-EGFP/nervana were selected and 32 female virgins 48 h old were subsequently monitored for locomotor activity continuously for several weeks. The locomotion of 32 flies that were fed with fly food containing the compound each time were simultaneously monitored.
To further validate these compounds, a secondary behavioral assay was developed. In this assay, UAS-CGG90-EGFP transgenic flies were crossed with nervana-GAL4, which could drive the expression of fragile X rCGG repeats in CNS, albeit weakly, allowing us to analyze adult flies for locomotion deficits. The expression of rCGG repeats leads to locomotion defects (FIG. 2A). […] The progeny flies (UAS-CGG90-EGFP/nervana-GAL4) were collected to monitor locomotion. To continuously monitor the locomotion for a given fly, a Drosophila Activity Monitor (DAM) system was established for this purpose. See Pfeiffenberger et al., Locomotor activity level monitoring using the Drosophila Activity Monitoring (DAM) System. Cold Spring Harb. Protoc. 2010.
For each individual compound, the locomotion of 32 flies were simultaneously monitored that were fed with fly food containing the compound each time. The data were collected and analyzed for locomotor activity (FIG. 2B). Each drug treatment was repeated at least three times.

For experiment [2], the system named is release of arachidonic acid. The settings on record: cited from earlier work.

With `COc1ccc(C(=O)/C=C/c2ccccc2)cc1` [4′-methoxy chalcone], in experiment [1], the “recovery of dFmr1 CGG90 mutant flies” value is 3%. In addition, in the experiment with dFmr1 CGG90 mutant flies, the “percentage of normal locomotion activity in dFmr1 CGG90 mutant flies” value (from here on “percentage of normal locomotion activity”) was found to be 75% and the “effect on locomotion deficits caused by fragile X premutation rCGG repeats (in words)” value (“effect on locomotion deficits caused” below) is “significant suppression of the locomotion activity deficit”.

As to `C[C@@H]1C[C@H]2[C@@H]3CCC4=CC(=O)C=C[C@]4(C)[C@@]3(F)[C@@H](O)C[C@]2(C)[C@@]1(O)C(=O)CO` [dexamethasone], the “recovery of dFmr1 CGG90 mutant flies” value in experiment [1] stood at 5%. Besides, the “percentage of normal locomotion activity” value in the experiment with dFmr1 CGG90 mutant flies was 90%.

Consider `CC1(C)O[C@@H]2C[C@H]3[C@@H]4C[C@H](F)C5=CC(=O)C=C[C@]5(C)[C@@]4(F)[C@@H](O)C[C@]3(C)[C@]2(C(=O)CO)O1` [fluocilone acetonide], for which the “recovery of dFmr1 CGG90 mutant flies” value in experiment [1] is on record as 7.5%. In addition, the “suppression of lethality caused by fragile X premutation rCGG repeats (in words)” value in experiment [1] (40 μm compound in food, heat shock at day 2, scored after 10-15 days) is “suppress both lethality and locomotion deficits”. For the same compound, the “percentage of normal locomotion activity” value with dFmr1 CGG90 mutant flies is recorded as 99%. Moreover, the “effect on locomotion deficits caused” value was “significant suppression of the locomotion activity deficit” in the experiment on dFmr1 CGG90 mutant flies; “significantly ameliorate the locomotion defects” in the experiment with dFmr1 CGG90 mutant flies (listed as Fluocinolone acetonide); “suppress both lethality and locomotion deficits” with dFmr1 CGG90 mutant flies (listed as fluocinolone acetonide).

As for `CCN(CC)CCCC(C)Nc1c2ccc(Cl)cc2nc2ccc(OC)cc12` (stereo not shown) [quinacrine], in experiment [2], the “release of arachidonic acid” value is given as “blocked”.

For `Cc1cccc(C)c1N=C1NCCCS1` [xylaxine], in experiment [1], the “recovery of dFmr1 CGG90 mutant flies” value is 5%. In addition, in the experiment with dFmr1 CGG90 mutant flies, the “percentage of normal locomotion activity” value amounted to 80% and the “effect on locomotion deficits caused” value is on record as “significant suppression of the locomotion activity deficit”. The “effect on locomotion deficits caused” value in the experiment on dFmr1 CGG90 mutant flies (listed as xylazine) is listed as “significantly ameliorate the locomotion defects”.

Values taken from patent US8618077B2, “Compositions and methods for treating fragile X premutation RVGG repeats-mediated toxicity” (Emory University, priority 2011, dated 2013).
